The record followed here is patent publication US11649238B2, “Substituted pyrazolo[1,5-a]pyrimidines as PI4K inhibitors” (GLAXOSMITHKLINE INTELLECTUAL PROPERTY DEVELOPMENT LIMITED, priority 2018, dated 2023).

The structures appear in SMILES notation.

The target of one test is PI4KIIIβ (Homo sapiens, UniProt Q9UBF8). Briefly: Residence Time Assay (Caliper conditioning assay and jump dilution). In kind it is biochemical. The note with it: jump dilution, 2 mM ATP, 1 μM Bodipy-PI. Here is the method: Caliper Conditioning Assay
Sequence of PI4KIIIβ (Q9UBF8 whole entry): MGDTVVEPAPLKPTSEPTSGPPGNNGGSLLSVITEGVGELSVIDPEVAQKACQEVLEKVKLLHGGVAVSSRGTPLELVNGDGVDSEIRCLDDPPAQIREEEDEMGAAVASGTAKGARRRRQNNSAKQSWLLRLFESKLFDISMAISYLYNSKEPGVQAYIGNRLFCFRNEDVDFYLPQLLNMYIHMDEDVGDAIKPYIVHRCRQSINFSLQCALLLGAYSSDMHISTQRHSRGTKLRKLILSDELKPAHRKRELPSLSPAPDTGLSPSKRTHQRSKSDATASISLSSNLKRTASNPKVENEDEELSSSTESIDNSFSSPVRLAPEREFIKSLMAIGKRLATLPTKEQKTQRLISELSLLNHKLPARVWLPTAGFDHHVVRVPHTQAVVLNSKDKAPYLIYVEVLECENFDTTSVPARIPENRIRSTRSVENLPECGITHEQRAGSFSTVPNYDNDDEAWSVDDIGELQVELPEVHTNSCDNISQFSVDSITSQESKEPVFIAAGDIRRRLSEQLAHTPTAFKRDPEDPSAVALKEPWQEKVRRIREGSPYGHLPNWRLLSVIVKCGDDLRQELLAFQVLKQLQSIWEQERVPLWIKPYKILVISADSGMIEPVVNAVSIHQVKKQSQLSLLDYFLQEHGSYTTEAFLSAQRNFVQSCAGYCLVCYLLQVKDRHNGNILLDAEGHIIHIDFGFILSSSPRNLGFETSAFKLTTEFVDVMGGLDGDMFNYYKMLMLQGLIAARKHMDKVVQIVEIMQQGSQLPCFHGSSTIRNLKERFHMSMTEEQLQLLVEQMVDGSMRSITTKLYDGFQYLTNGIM
Compound dilutions were prepared in 100% DMSO using a 1 in 3 serial step dilution and a top concentration of 1 mM. A 200 nL stamp from a 12-point titration was transferred to a black 384-well Greiner assay plate ensuring a final DMSO concentration of 1% across the plate and a top final concentration of inhibitor of 10 μM in 20 μL final assay volume. To a well of a 384-well assay plate 10 μL of 2× Enzyme buffer was pre-incubated with compound for 1 h. Buffer without enzyme was used as 100%-inh control. 10 μL of 2× substrate solution was added to initiate the assay such that the final concentrations were 2 mM ATP and 1 μM Bodipy-PI and the plate was incubated at 25° C. for 3 hours. The enzymatic reaction was terminated by adding 40 μL of stop buffer and Substrate (PI) and product (PIP) present in each sample were separated electrophoretically using a LabChip 3000 capillary electrophoresis instrument CALIPER LABCHIP 3000 Drug Discovery System and detected using blue laser (480 nm) for excitation and green CCD (520 nm) for detection (CCD2). Negative control samples (0%-inhibition in the absence of inhibitor) and positive control samples (100%-inhibition, in the absence of enzyme) were assembled in replicates of 48 (4 replicates per caliper sipper) and were used to calculate %-inhibition values in each test well. Percent inhibition (Pinh) was determined using following equation: Pinh=(PSRO %−PSRinh)/(PSRO %−PSR100%)×100
Where PSRinh is the product sum ratio in the presence of inhibitor, PSRO % is the average product sum ratio in the absence of inhibitor and PSR100% is the average product sum ratio in 100%-inhibition control samples; the IC50 values of inhibitors are determined by fitting the inhibition curves (Pinh versus inhibitor concentration) to the 4 parameter sigmoid dose-response model using XLfit 4 software (IBDS).
In a small Eppendorf tube, 5 μL of 2× enzyme solution (0.4 μM-0.8 μM) was mixed with 5 μL 2× compound solution containing 40 to 120-fold the IC50 value determined at 2 mM ATP as described above, and incubated for 1 h at room temperature. The assay was initiated by rapidly mixing 2 μL of the enzyme preincubation mixture with 800 μL substrate mix containing 2 mM ATP and 1 μM Bodipy-PI. 60 μL of each sample was transferred into low volume Greiner 384-well plate, and the Substrate (PI) and product (PIP) present in each sample were separated electrophoretically using a LabChip 3000 capillary electrophoresis instrument CALIPER LABCHIP 3000 Drug Discovery System and detected using blue laser (480 nm) for excitation and green CCD (520 nm) for detection (CCD2) for approximately 8 h (200 measurements from each well). […]

The subject of test [1] is human rhinovirus Type A Strain 16 (HRVA16) in HeLa Ohio cells. As to the kind of experiment: Cytopathic Effect (CPE) Assay, ATP-depletion in infected HeLa Ohio cells. The note with it: HRVA16 at MOI of 1, 33° C. for 2 days, CellTiter-Glo. Type of test: cell-based. Here is the method:
c) Cytopathic Effect (CPE) Assay Protocol
The in vitro inhibition of PI4 KB activity was determined by analysis of the inhibition of ATP-depletion in HeLa Ohio cells in response to infection with human rhinovirus Type A Strain 16 (HRVA16). ATP levels were determined using CellTiter-GLO reagent from Promega. Compounds that inhibit PI4 KB are also potent inhibitors of human rhinoviruses and are able to protect HeLa Ohio cells from CPE induced by viral infection and replication. Protected cells remain viable following viral infection and therefore have greater ATP levels.
Compounds were dissolved in 100% DMSO to a concentration of 3 mM and subsequent dilutions were prepared in 100% DMSO using a 1:3 serial step dilution. A 0.5 μL stamp from an 10-point titration was transferred to a white 96 well Greiner tissue culture flat bottom plate (655083). A 0.5 μL stamp of 100% DMSO was stamped into columns 11 and 12 of the plate, ensuring a final assay DMSO concentration of 0.33% across the plate and a compound top final assay concentration of 10 μM.
HeLa Ohio cells were cultured at 37° C., 5% CO2 in media (DMEM supplemented with 10% Australian origin foetal bovine serum and 2 mM glutamax). Cells were passaged when confluency reached >80%. For the assay, cells were grown to 80-90% confluency before detachment.
Cells were detached for the assay by washing with PBS and detached using 3 mL TrypLE Express for […] at 37° C. Detached cells were mixed with 7 mL of media and centrifuged at 300 g for 5 min. The cell pellet was resuspended in 50 mL media and counted on a Beckman Coulter ViCell. Cells were diluted to 6.6×10^4 cells/mL and some of the cell volume was removed into a new tube to be used as a column 12 control. HRVA16 stock was added to the remaining cell suspension at the appropriate dilution for the virus stock to achieve an MOI of 1.
150 μL of the cell+virus suspension was added per well to columns 1-11 using a Multidrop Combi. 150 μL of the separate cell suspension was added per well to columns 12 using a multichannel pipette. Assay plates were sealed and incubated at 33° C., 5% CO2 for 2 days. After 2 days, assay plates were removed from the incubator and allowed to equilibrate to room temperature. 60 μL of CellTiter-Glo reagent was added to all wells using a Thermo Scientific Multidrop Combi. Plates were incubated at room temperature for 20 min before reading on an a Perkin Elmer Envision (Settings: Gripper height 2.5, Fixed measurement height (mm) 6.5, Distance between plate and detector 0, Measurement time (s) 0.1, Glow (ct2) correction factor (0%)).
The inhibitory effect of the compounds on the PI4 KB activity was evaluated by the IC50 of the response relative to the high (no virus, column 12) and low (virus+no inhibitor, column 11) controls by fitting to a four parameter dose response equation.

Consider `Cc1ccc(-c2c(C)nn3c(NCc4cccc(-c5nccn5C)c4)cc(C(C)(C)O)nc23)cc1C(=O)N(C)CCCO` [Compound 17, 5-(5-(2-Hydroxypropan-2-yl)-2-methyl-7-((3-(1-methyl-1H-imidazol-2-yl)benzyl)amino)pyrazolo[1,5-a]pyrimidin-3-yl)-N-(3-hydroxypropyl)-N,2-dimethylbenzamide], for which the residence time at PI4KIIIβ came to 542 min. Moreover, the “mean pIC50” value in test [1] turned out to be 8.9.

At PI4KIIIβ, `CCN(CCO)C(=O)c1cc(-c2c(C)nn3c(NCc4cccc(-c5nccn5C)c4)cc(C(C)(C)O)nc23)ccc1OC` [Compound 19, N-ethyl-N-(2-hydroxyethyl)-5-(5-(2-hydroxypropan-2-yl)-2-methyl-7-((3-(1-methyl-1H-imidazol-2-yl)benzyl)amino)pyrazolo[1,5-a]pyrimidin-3-yl)-2-methoxybenzamide] returned a residence time of 997 min. For the same molecule, the “mean pIC50” value in test [1] is on record as 8.9.

At PI4KIIIβ, `COc1ccc(-c2c(C)nn3c(NCc4cccc(-c5nccn5C)c4)cc(C(C)(C)O)nc23)cc1C(=O)N(C)C1CCOCC1` [Compound 21, 5-(5-(2-Hydroxypropan-2-yl)-2-methyl-7-((3-(1-methyl-1H-imidazol-2-yl)benzyl)amino)pyrazolo[1,5-a]pyrimidin-3-yl)-2-methoxy-N-methyl-N-(tetrahydro-2H-pyran-4-yl)benzamide] yielded a residence time of 528 min. The “mean pIC50” value in test [1] is given as 8.8.

With `Cc1ccc(-c2c(C)nn3c(NCc4cccc(-c5nccn5C)c4)cc(C(C)(C)O)nc23)cc1C(=O)N(C)[C@@H](C)CO` [Compound 22, (S)—N-(1-hydroxypropan-2-yl)-5-(5-(2-hydroxypropan-2-yl)-2-methyl-7-((3-(1-methyl-1H-imidazol-2-yl)benzyl)amino)pyrazolo[1,5-a]pyrimidin-3-yl)-N,2-dimethylbenzamide], the residence time on PI4KIIIβ came to 1670 min. Also, the “mean pIC50” value in test [1] was “at least 9.1”.
